Measured values reported in patent US11261230B2, “Synthetic somatostatin receptor ligands” (TEL HASHOMER MEDICAL RESEARCH INFRASTRUCTURE AND SERVICES …, priority 2014, dated 2022).
*1 amine or outer side, *2 acyl side, *3 side chain or, on linkers, in order; H or OH if unused. Where a SMILES comes first, the peptide text is derived from it. Bridges are numbered along the chain shown (N, C = ends). [ ]: non-standard residue; d: D form. The star is where a group is joined. FITC = O=C1OC2(c3ccc(O)cc3Oc3cc(O)ccc32)c2ccc(NC(=S)*)cc21; N(2-mercaptoethyl)Gly = O=C(CN(CCS[*:3])[*:1])[*:2]; Aib = CC(C)(N)C(=O)O; GABA = NCCCC(=O)O

How the values were obtained:
human SSTR5 = target: T1, human SSTR5 (Homo sapiens, UniProt P35346); assay: Binding to transfected HEK cells expressing a single SSTRx subtype, FACS and fluorescence microscopy
T1 construct: expressed in transfected cells; host or cells: HEK-293, transient transfection, pcDNA 3.1
T1 sequence (P35346 whole entry): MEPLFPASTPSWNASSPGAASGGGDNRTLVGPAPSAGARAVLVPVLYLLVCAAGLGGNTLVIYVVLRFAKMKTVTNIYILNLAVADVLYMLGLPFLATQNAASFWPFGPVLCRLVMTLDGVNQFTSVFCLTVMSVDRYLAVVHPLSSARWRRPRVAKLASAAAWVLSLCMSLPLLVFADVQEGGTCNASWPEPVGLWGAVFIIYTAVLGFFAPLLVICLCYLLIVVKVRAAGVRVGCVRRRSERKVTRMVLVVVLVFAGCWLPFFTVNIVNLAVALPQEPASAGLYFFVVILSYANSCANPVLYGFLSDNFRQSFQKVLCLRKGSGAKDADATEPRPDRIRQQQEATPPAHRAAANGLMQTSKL
Protocol: (§1) The affinity of compounds 1-16 to each of the five SSTRx was tested using an in vitro model of transfected cell lines (HEK—human embryonic kidney), each expressing a single human SSTRx subtype. Biological activity assessment of the compounds to define a specific affinity to each subtype was performed by FACS and fluorescence imaging methods.
(§2) Human SSTRx were expressed in the cells by transient transfection. Each SSTR was expressed separately, creating five different cell lines using human gene transcript.
(§3) The transfection process is illustrated in FIG. 1. The transient transfection process was carried out before each experiment. Briefly, HEK cells were cultured in standard cell growth conditions. For testing, the cells were transferred into 96-well plates. The tested compounds were dissolved in DMSO and then diluted in a buffer solution to a final DMSO concentration of 5% as a composition according to the teachings herein. Various amounts of the thus-prepared compositions were added to the cells in medium in the 96-well plates and allowed to incubate for between 1 and 24 hours. Binding was determined using fluorescent microscopy and FACS.
(§4) Qualitative assessment of binding efficiency was done by visual inspection and digital photography using an inverted fluorescent microscope. Quantitative assessment was done using FACS.
(§5) HEK-293 cells (human embryonic kidney) were grown in Dulbecco's modified Eagle's medium (DMEM) supplemented with 4 mM glutamine, 10% fetal bovine serum (FBS) and 100 units/ml penicillin/streptomycin at 37° C./5% carbon dioxide. One day prior to transfection, the cells were trypsinized, counted and plated at a density of 3×10^5 per 35 mm diameter dish. Until 70% confluency, cells were transiently transfected with the pcDNA 3.1 vector bearing the coding region for the human SSTR human somatostatin receptor subtypes SSTR1-SSTR5. Transfections were carried out with JetPei transfection reagent (Polyplus-transfection, NY, USA) according to the manufacturer's recommendation. Briefly, 2 micrograms of plasmid DNA and 6 microliter of JetPei transfection reagent were used for each transfection. Each of the components were resuspended in 100 microliter of 150 mM NaCl, mixed and incubated for 25 minutes at room temperature and after incubation added to cells.
(§6) Cells were then seeded in a 96-well flat-bottom microplate (Costar, Corning, N.Y.) at a concentration of 5×10^4 cells/well. Twelve hours later, the supernatant was removed and replaced with fresh DMEM containing various (in the nM range) concentrations of tested compounds 1-16. The cells were incubated for additional time intervals ranging from 0.5-24 hr. At the end of the incubation period, supernatant was discarded and the cells were washed twice with cold PBS. The plates were examined using IX81 inverted microscope (Olympus, Japan) equipped with […] digital camera. Additionally, a FACS assay was used for quantitative analysis.
(§7) Quantitative assessment of binding affinity of Compounds 1-16 was performed by FACS in the transfected HEK cell model.
(§8) Quantitatively, specific binding affinity was assessed as the percentage of double stained [(GR=green and red indicating transfection)/(R is total red) less (G is green indicating unspecific binding)]: specific binding affinity=[GR/R−G]

human SSTR4 = target: T2, human SSTR4 (Homo sapiens, UniProt P31391); assay: Binding to transfected HEK cells expressing a single SSTRx subtype, FACS
T2 construct: expressed in transfected cells; host or cells: HEK-293, transient transfection, pcDNA 3.1
T2 sequence (P31391 whole entry): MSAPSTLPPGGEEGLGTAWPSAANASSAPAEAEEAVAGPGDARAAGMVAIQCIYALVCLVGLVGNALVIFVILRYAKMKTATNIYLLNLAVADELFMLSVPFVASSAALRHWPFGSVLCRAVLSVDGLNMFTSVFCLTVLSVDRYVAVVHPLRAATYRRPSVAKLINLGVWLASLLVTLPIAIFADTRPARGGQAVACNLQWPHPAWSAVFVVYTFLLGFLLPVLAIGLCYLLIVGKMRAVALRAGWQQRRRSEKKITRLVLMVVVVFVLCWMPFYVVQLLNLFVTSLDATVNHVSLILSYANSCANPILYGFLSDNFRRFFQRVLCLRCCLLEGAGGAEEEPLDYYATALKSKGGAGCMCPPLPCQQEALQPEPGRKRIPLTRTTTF
Protocol: as §1, §2, §3, §4, §5, §6, §7, §8

human SSTR3 = target: T3, human SSTR3 (Homo sapiens, UniProt P32745); assay: as above
T3 construct: expressed in transfected cells; host or cells: HEK-293, transient transfection, pcDNA 3.1
T3 sequence (P32745 whole entry): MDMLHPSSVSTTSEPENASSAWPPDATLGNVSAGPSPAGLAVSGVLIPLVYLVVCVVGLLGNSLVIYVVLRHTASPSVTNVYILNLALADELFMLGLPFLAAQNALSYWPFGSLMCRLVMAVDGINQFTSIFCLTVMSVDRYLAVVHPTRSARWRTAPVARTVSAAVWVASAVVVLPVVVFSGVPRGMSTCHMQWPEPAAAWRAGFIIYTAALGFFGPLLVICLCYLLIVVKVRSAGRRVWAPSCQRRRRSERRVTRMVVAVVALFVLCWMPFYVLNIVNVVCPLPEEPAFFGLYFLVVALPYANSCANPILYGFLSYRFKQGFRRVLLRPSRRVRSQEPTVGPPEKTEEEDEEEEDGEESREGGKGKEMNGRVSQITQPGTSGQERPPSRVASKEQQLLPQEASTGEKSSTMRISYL
Protocol: as §1, §2, §3, §4, §5, §6, §7, §8

human SSTR2 = target: T4, human SSTR2 (Homo sapiens, UniProt P30874); assay: as above
T4 construct: expressed in transfected cells; host or cells: HEK-293, transient transfection, pcDNA 3.1
T4 sequence (P30874 whole entry): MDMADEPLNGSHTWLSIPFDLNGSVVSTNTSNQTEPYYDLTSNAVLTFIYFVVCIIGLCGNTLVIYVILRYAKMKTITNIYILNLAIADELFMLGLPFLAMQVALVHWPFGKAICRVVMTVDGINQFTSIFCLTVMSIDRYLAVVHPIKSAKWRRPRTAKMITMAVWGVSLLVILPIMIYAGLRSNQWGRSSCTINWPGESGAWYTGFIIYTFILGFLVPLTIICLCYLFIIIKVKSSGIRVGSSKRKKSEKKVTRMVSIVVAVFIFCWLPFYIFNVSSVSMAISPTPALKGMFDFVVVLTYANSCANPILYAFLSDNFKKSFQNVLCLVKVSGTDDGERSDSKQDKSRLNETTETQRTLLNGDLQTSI
Protocol: as §1, §2, §3, §4, §5, §6, §7, §8

human SSTR1 = target: T5, human SSTR1 (Homo sapiens, UniProt P30872); assay: as above
T5 construct: expressed in transfected cells; host or cells: HEK-293, transient transfection, pcDNA 3.1
T5 sequence (P30872 whole entry): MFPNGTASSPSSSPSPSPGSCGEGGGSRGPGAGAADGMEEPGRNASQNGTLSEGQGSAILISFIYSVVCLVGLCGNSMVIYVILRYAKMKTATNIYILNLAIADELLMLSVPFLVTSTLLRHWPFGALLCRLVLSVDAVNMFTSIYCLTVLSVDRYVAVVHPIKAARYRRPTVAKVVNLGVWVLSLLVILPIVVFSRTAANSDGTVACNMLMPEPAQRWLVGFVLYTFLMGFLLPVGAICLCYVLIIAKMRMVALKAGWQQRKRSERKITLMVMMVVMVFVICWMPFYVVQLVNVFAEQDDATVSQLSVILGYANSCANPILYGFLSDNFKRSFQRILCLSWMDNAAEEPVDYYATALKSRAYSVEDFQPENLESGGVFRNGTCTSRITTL
Protocol: as §1, §2, §3, §4, §5, §6, §7, §8

SSTR1-SSTR5 = assay: Binding specificity across the five SSTRx transfected HEK cell lines; parameters: species or system human; conditions: conclusions drawn from Table 2-A
Protocol: Biological activity assessment of the compounds to define a specific affinity to each subtype was performed by FACS and fluorescence imaging methods. Human SSTRx were expressed in the cells by transient transfection. Each SSTR was expressed separately, creating five different cell lines using human gene transcript. The transfection process is illustrated in FIG. 1. The transient transfection process was carried out before each experiment. Briefly, HEK cells were cultured in standard cell growth conditions. For testing, the cells were transferred into 96-well plates. The tested compounds were dissolved in DMSO and then diluted in a buffer solution to a final DMSO concentration of 5% as a composition according to the teachings herein. Various amounts of the thus-prepared compositions were added to the cells in medium in the 96-well plates and allowed to incubate for between 1 and 24 hours. Binding was determined using fluorescent microscopy and FACS. Cells were then seeded in a 96-well flat-bottom microplate (Costar, Corning, N.Y.) at a concentration of 5×10^4 cells/well. […] Additionally, a FACS assay was used for quantitative analysis. […] Quantitatively, specific binding affinity was assessed as the percentage of double stained [(GR=green and red indicating transfection)/(R is total red) less (G is green indicating unspecific binding)]: specific binding affinity=[GR/R−G]

PANC-1 tumors = conditions: mouse, in vivo
Protocol: Five different pharmaceutical compositions were prepared, each by dissolving 1 mg of a different Somatostatin receptor ligand in 1 liter PBS.
Solid human-derived tumors were induced in 15 nude mice by subcutaneous injection of a suspension containing ˜5□10^5 human cancer cells (PANC-1) into the flank area of the mice.
2-3 weeks after the injection of the cancer cells, it was observed that the mice developed solid tumors with diameters of approximately 5-10 mm.
0.3 ml of each one of the five pharmaceutical compositions were systemically administered to three of the fifteen xenograft mice by injection into the tail vein using a 30 G needle.
The fifteen mice were sacrificed and from the bodies tumors, pancreas, spleen, kidney and liver were harvested.
The fluorescence of the harvested tissue was determined using the Maestro™ in vivo fluorescence imaging system (Cambridge Research & Instrumentation, Inc., Woburn, Mass., USA).

[1] = FACS, transfected HEK, specific binding affinity = percentage double stained [GR/R−G], 0 = no binding detected
[2] = Table 2 normalized according to the highest binding affinity of that compound
[3] = Table 2 normalized to Compound 1 (=100)

Row | SMILES | Relative binding affinity SSTR5 (human SSTR5; [1]) | Adjusted binding affinity SSTR5 (human SSTR5; [2]) | Binding affinity to SSTR5 relative to Compound 1 (human SSTR5; [3]) | Relative binding affinity SSTR4 (human SSTR4; [1]) | Adjusted binding affinity SSTR4 (human SSTR4; [2]) | Binding affinity to SSTR4 relative to Compound 1 (human SSTR4; [3]) | Relative binding affinity SSTR3 (human SSTR3; [1]) | Adjusted binding affinity SSTR3 (human SSTR3; [2]) | Binding affinity to SSTR3 relative to Compound 1 (human SSTR3; [3]) | Relative binding affinity SSTR2 (human SSTR2; [1]) | Adjusted binding affinity SSTR2 (human SSTR2; [2]) | Binding affinity to SSTR2 relative to Compound 1 (human SSTR2; [3]) | Relative binding affinity SSTR1 (human SSTR1; [1]) | Adjusted binding affinity SSTR1 (human SSTR1; [2]) | Binding affinity to SSTR1 relative to Compound 1 (human SSTR1; [3]) | Binding specificity among the five SSTRx (in words) (SSTR1-SSTR5) | Intensity in healthy tissue (in words) (PANC-1 tumors)
1 | C[C@@H](O)[C@@H]1NC(=O)C(C)(C)NC(=O)[C@@H](Cc2c[nH]c3ccccc23)NC(=O)[C@H](Cc2c[nH]c3ccccc23)NC(=O)[C@H](Cc2ccccc2)NC(=O)[C@@H](NC(=O)[C@@H](Cc2ccccc2)NC(=O)CCCNC(=S)Nc2ccc3c(c2)C(=O)OC32c3ccc(O)cc3Oc3cc(O)ccc32)CSSCCN(CC(N)=O)C(=O)[C@H](Cc2ccccc2)NC1=O [Compound 13, FITC-GABA-D-Phe-Cys-Phe-Trp-D-Trp-Aib-Thr-Phe-GlyS2] ({FITC-GABA}-[dF]CFW[dW][Aib]TF[N(2-mercaptoethyl)Gly]-NH2; disulfide 2-9) | 9 | 1 | 32 | 4 | 0.44 | 18 | 6 | 0.67 | 35 | 0 | 0 | 0 | 1 | 0.11 | 33 | to SSTR3 and SSTR5 and not SSTR1, SSTR2 and SSTR4 | –
2 | C[C@@H](O)[C@@H]1NC(=O)[C@H](CCCCN)NC(=O)[C@@H](Cc2c[nH]c3ccccc23)NC(=O)[C@H](Cc2ccccc2)NC(=O)[C@H](CCCNC(=N)N)NC(=O)[C@@H](NC(=O)CCCNC(=S)Nc2ccc3c(c2)C(=O)OC32c3ccc(O)cc3Oc3cc(O)ccc32)CSSCCN(CC(N)=O)C(=O)[C@H](Cc2ccccc2)NC1=O [Compound 9, FITC-GABA-Cys-Arg-Phe-D-Trp-Lys-Thr-Phe-GlyS2] ({FITC-GABA}-CRF[dW]KTF[N(2-mercaptoethyl)Gly]-NH2; disulfide 1-8) | – | – | – | – | – | – | – | – | – | – | – | – | – | – | – | – | undetectable in the healthy tissues
